Measured values: US20210040089A1, “KRAS MUTANT PROTEIN INHIBITORS” (Jacobio Pharmaceuticals Co., Ltd., priority 2019, published 2021)

How the values were obtained:
KRAS G12C = target: T1, KRAS G12C (Homo sapiens, UniProt P01116, G12C); experiment: SOS1 catalyzed nucleotide exchange assay (TR-FRET); type: biochemical; details: GDP-loaded HIS-KRAS(G12C), 1 hour pre-incubation with compound
T1 construct: HIS-KRAS (G12C, aa 2-185, Sino biological); purchased Sino biological
Experimental: 1. SOS1 Catalyzed Nucleotide Exchange Assay
HIS-KRAS (G12C, aa 2-185, Sino biological) was diluted to […] EDTA buffer (20 mM HEPES, pH 7.4, 50 mM NaCl, 10 mM EDA, 0.01% (v/v) Tween-20) and incubated for 30 min at 25° C. The EDTA pretreated HIS-KRAS(G12C) was diluted to 12 nM in assay buffer (25 mM HEPES, pH 7.4, 120 mM NaCl, 5 mM MgCl2, 1 mM DTI, 0.01% (v/v) Tween 20, 0.1% (w/v) BSA) containing 120 nM GDP(Sigma) and Mab Anti 6HIS-Tb cryptate Gold(Cisbio) and incubated for 1 hour at 25° C. to prepare GDP-loaded HIS-KRAS(G12C). The GDP-loaded HIS-KRAS(G12C) was pre-incubation with diluted compounds in a 384-well plate (Greiner) for 1 hour, then purified SOS 1ExD (Flag tag, aa 564-1049) and BODIPY™FL GTP (Invitrogen) were added to the assay wells (Final concentration: 3 nM HIS-KRAS(G12C), 2 μM SOS1 ExD, 80 nM BODIPY™FL GTP, 21 ng/mL MAb Anti 6HS-Tb cryptate Gold) and incubated for 4 hours at 25° C. TR-FRET signals were then read on Tecan Spark multimode microplate reader. The parameters were F486: Excitation 340 (35) nm, Emission 486 (10) nm, Lag time 100 μs, Integration time […]; F515: Excitation 340 (35) nm, Emission 515 (10) nm, Lag time […], Integration time 200 s. TR-FRET ratios for each individual wells were calculated by equation: TR-FRET ratio=(Signal F515/Signal F486)*10000. Then the data were analyzed using a 4-parameter logistic model to calculate IC50 values.

[1] = tested on: Phospho-ERK1/2(THR202/TYR204) in NCI-H358 cells express KRAS G12C; experiment: Phospho-ERK1/2(THR202/TYR204) HTRF assay; type: cell-based; details: Homo sapiens; NCI-H358, 2 hours incubation; read-out: p-ERK inhibition in NCI-H358 IC50
Experimental: NCI-H358 cells express KRAS G12C were cultured in RPMI 1640 medium (Gibco) containing 10% fetal bovine serum (Gibco). Cells in culture medium were plated in 96-well plates at a concentration of 40,000 cells/well and allowed to attach overnight. The next day, culture medium was removed and added compounds diluted in assay medium (RPMI 1640, 0.1% EFBS). After 2 hours incubation in a 37° C./5% CO2 cell incubator, the assay medium was removed, then 50 μL of 1× supplemented lysis buffer (Cisbio) was added and the plates were incubated at 25° C. for 45 min with shaking. 10 μL of cell lysates from the 96-well plates were transferred to a 384-well plate (Greiner) containing 2.5 µL/well HTRF® pre-mixed antibodies (Cisbio 64AERPEH).
Incubate 4 hours at 25° C. and then read HTRF signals on Tecan Spark multimode microplate reader. The data were analyzed using a 4-parameter logistic model to calculate IC50 values.

[2] = tested on: NCI-H358 cells express KRAS G12C; experiment: Cell growth inhibition assay (CCK-8); type: cell-based; details: Homo sapiens, 144 h; NCI-H358, 6 days incubation
Experimental: 3. Cell Growth inhibition assay
NCI-H358 cells express KRAS G12C were cultured in RPMI 1640 medium (Gibco) containing 10% fetal bovine serum (Gibco). Cells in culture medium were plated in 96-well plates at a concentration of 3000 cells/well ([…]) and allowed to attach overnight. The next day, compounds were diluted in culture medium and added to the plates. After 6 days incubation in a 37° C./5% CO2 cell incubator, the medium was removed, then 100 μL of 1×CCK-8 (MCE) in culture medium was added in each well. The plates were incubated 1.5-2 hours in a 37° C./5% CO2 cell incubator. OD450 signals were read on Tecan Spark multimode microplate reader and analyzed using a 4-parameter logistic model to calculate IC50 values.

T1 sequence (P01116 2-185 isoform P01116-2 G12C): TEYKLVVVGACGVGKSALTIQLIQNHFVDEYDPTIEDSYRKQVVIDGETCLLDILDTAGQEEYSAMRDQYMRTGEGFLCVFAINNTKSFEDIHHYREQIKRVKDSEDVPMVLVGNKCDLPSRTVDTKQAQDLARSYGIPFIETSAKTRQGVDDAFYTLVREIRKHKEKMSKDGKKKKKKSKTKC

SMILES: C=CC(=O)N1CCN(c2nc(OCC3(CN4CCC4)CC3)nc3c2CCN(c2cccc4ccccc24)C3)CC1CC#N (stereo not shown) [Compound 41, 2-(1-acryloyl-4-(2-((1-(azetidin-1-ylmethyl)cyclopropyl)methoxy)-7-(naphthalen-1-yl)-5,6,7,8-tetrahydropyrido[3,4-d]pyrimidin-4-yl)piperazin-2-yl)acetonitrile]
- IC50 (KRAS G12C): 13.5 nM
- IC50 [1]: 149 nM
- IC50 [2]: 179 nM

SMILES: C=CC(=O)N1CCN(c2nc(OCC3CCCC3N(C)C)nc3c2CCN(c2cccc4ccccc24)C3)CC1CC#N (stereo not shown) [Compound 14, 2-(1-acryloyl-4-(2-((2-(dimethylamino)cyclopentyl)methoxy)-7-(naphthalen-1-yl)-5,6,7,8-tetrahydropyrido[3,4-d]pyrimidin-4-yl)piperazin-2-yl)acetonitrile]
- IC50 (KRAS G12C): 54.1 nM
- IC50 [1]: 234 nM
- IC50 [2]: 217 nM

SMILES: C=CC(=O)N1CCN(c2nc(OC(C)C3(CN(C)C)CC3)nc3c2CCN(c2cccc4cccc(C)c24)C3)CC1CC#N (stereo not shown) [Compound 57, 2-(1-acryloyl-4-(2-(1-(1-((dimethylamino)methyl)cyclopropyl)ethoxy)-7-(8-methylnaphthalen-1-yl)-5,6,7,8-tetrahydropyrido[3,4-d]pyrimidin-4-yl)piperazin-2-yl)acetonitrile]
- IC50 (KRAS G12C): 28.1 nM
- IC50 [1]: 296 nM
- IC50 [2]: 522 nM

SMILES: C=CC(=O)N1CCN(c2nc(OC[C@@H]3CC[C@H](N(C)C)C3)nc3c2CCN(c2cccc4cccc(C)c24)C3)CC1CC#N (stereo partly drawn) [Compound 22, 2-(1-acryloyl-4-(2-(((1R,3S)-3-(dimethylamino)cyclopentyl)methoxy)-7-(8-methylnaphthalen-1-yl)-5,6,7,8-tetrahydropyrido[3,4-d]pyrimidin-4-yl)piperazin-2-yl)acetonitrile]
- IC50 (KRAS G12C): 10.7 nM
- IC50 [1]: 96.6 nM
- IC50 [2]: 65.2 nM

SMILES: C=CC(=O)N1CCN(c2nc(OCC3CCCC3N(C)C)nc3c2CCN(c2ccccc2C(F)(F)F)C3)CC1CC#N (stereo not shown) [Compound 27, 2-(1-acryloyl-4-(2-((2-(dimethylamino)cyclopentyl)methoxy)-7-(2-(trifluoromethyl)phenyl)-5,6,7,8-tetrahydropyrido[3,4-d]pyrimidin-4-yl)piperazin-2-yl)acetonitrile]
- IC50 (KRAS G12C): 84.6 nM
- IC50 [1]: 566 nM
- IC50 [2]: 310 nM

SMILES: CN(C)CC1(COc2nc3c(c(N4CCN(C(=O)/C=C/CF)[C@@H](CC#N)C4)n2)CCN(c2cccc4cccc(Cl)c24)C3)CC1 [Compound 84, (S,E)-2-(4-(7-(8-chloronaphthalen-1-yl)-2-((1-((dimethylamino)methyl)cyclopropyl)methoxy)-5,6,7,8-tetrahydropyrido[3,4-d]pyrimidin-4-yl)-1-(4-fluorobut-2-enoyl)piperazin-2-yl)acetonitrile]
- IC50 (KRAS G12C): 1.58 nM
- IC50 [1]: 80.2 nM
- IC50 [2]: 24.3 nM

SMILES: C=C(F)C(=O)N1CCN(c2nc(OCC3(CN(CC)CC)CC3)nc3c2CCN(c2cccc4cccc(C)c24)C3)CC1CC#N (stereo not shown) [Compound 76, 2-(4-(2-((1-((diethylamino)methyl)cyclopropyl)methoxy)-7-(8-methylnaphthalen-1-yl)-5,6,7,8-tetrahydropyrido[3,4-d]pyrimidin-4-yl)-1-(2-fluoroacryloyl)piperazin-2-yl)acetonitrile]
- IC50 (KRAS G12C): 11.7 nM
- IC50 [1]: 354 nM
- IC50 [2]: 421 nM

SMILES: C=CC(=O)N1CCN(c2nc(OCC3(CN4CCCC4)CC3)nc3c2CCN(c2cccc(Cl)c2Cl)C3)CC1CC#N (stereo not shown) [Compound 35, 2-(1-acryloyl-4-(7-(2,3-dichlorophenyl)-2-((1-(pyrrolidin-1-ylmethyl)cyclopropyl)methoxy)-5,6,7,8-tetrahydropyrido[3,4-d]pyrimidin-4-yl)piperazin-2-yl)acetonitrile]
- IC50 (KRAS G12C): 17.9 nM
- IC50 [1]: 85.3 nM
- IC50 [2]: 106 nM

SMILES: C=CC(=O)N1CCN(c2nc(OCC3(CN4CCCC4)CC3)nc3c2CCN(c2cccc(Cl)c2C(F)(F)F)C3)CC1CC#N (stereo not shown) [Compound 38, 2-(1-acryloyl-4-(7-(3-chloro-2-(trifluoromethyl)phenyl)-2-((1-(pyrrolidin-1-ylmethyl)cyclopropyl)methoxy)-5,6,7,8-tetrahydropyrido[3,4-d]pyrimidin-4-yl)piperazin-2-yl)acetonitrile]
- IC50 (KRAS G12C): 5.24 nM
- IC50 [1]: 66 nM
- IC50 [2]: 60.2 nM

SMILES: C=CC(=O)N1CCN(c2nc(OCC3(CN4CCC4)CC3)nc3c2CCN(c2cccc4cccc(C)c24)C3)CC1CC#N (stereo not shown) [Compound 43, 2-(1-acryloyl-4-(2-((1-(azetidin-1-ylmethyl)cyclopropyl)methoxy)-7-(8-methylnaphthalen-1-yl)-5,6,7,8-tetrahydropyrido[3,4-d]pyrimidin-4-yl)piperazin-2-yl)acetonitrile]
- IC50 (KRAS G12C): 5.04 nM
- IC50 [1]: 71.8 nM
- IC50 [2]: 135 nM

SMILES: C=CC(=O)N1CCN(c2nc(OCC3CCC(N(C)C)C3)nc3c2CCN(c2cccc4cccc(C)c24)C3)CC1CC#N (stereo not shown) [Compound 24, 2-(1-acryloyl-4-(2-((3-(dimethylamino)cyclopentyl)methoxy)-7-(8-methylnaphthalen-1-yl)-5,6,7,8-tetrahydropyrido[3,4-d]pyrimidin-4-yl)piperazin-2-yl)acetonitrile]
- IC50 (KRAS G12C): 20.1 nM
- IC50 [1]: 237 nM
- IC50 [2]: 93.6 nM

SMILES: C=CC(=O)N1CCN(c2nc(OCC3(CN(C)C)CC3)nc3c2CCN(c2cccc4ccsc24)C3)CC1CC#N (stereo not shown) [Compound 50, 2-(1-acryloyl-4-(7-(benzo[b]thiophen-7-yl)-2-((1-((dimethylamino)methyl)cyclopropyl)methoxy)-5,6,7,8-tetrahydropyrido[3,4-d]pyrimidin-4-yl)piperazin-2-yl)acetonitrile]
- IC50 (KRAS G12C): 8.66 nM
- IC50 [1]: 83.8 nM
- IC50 [2]: 202 nM

SMILES: C=CC(=O)N1CCN(c2nc(OCC3(CN4CCCC4)CC3)nc3c2CCN(c2cccc4cccc(Cl)c24)C3)CC1CC#N (stereo not shown) [Compound 61, 2-(1-acryloyl-4-(7-(8-chloronaphthalen-1-yl)-2-((1-(pyrrolidin-1-ylmethyl)cyclopropyl)methoxy)-5,6,7,8-tetrahydropyrido[3,4-d]pyrimidin-4-yl)piperazin-2-yl)acetonitrile]
- IC50 (KRAS G12C): 1.44 nM
- IC50 [1]: 16.2 nM
- IC50 [2]: 25.1 nM

SMILES: C=CC(=O)N1CCN(c2nc(OCC3CCCC(N(C)C)C3)nc3c2CCN(c2cccc4cccc(C)c24)C3)CC1CC#N (stereo not shown) [Compound 5, 2-(1-acryloyl-4-(2-((3-(dimethylamino)cyclohexyl)methoxy)-7-(8-methylnaphthalen-1-yl)-5,6,7,8-tetrahydropyrido[3,4-d]pyrimidin-4-yl)piperazin-2-yl)acetonitrile]
- IC50 (KRAS G12C): 19.6 nM
- IC50 [1]: 330 nM
- IC50 [2]: 174 nM

SMILES: C=CC(=O)N1CCN(c2nc(OCC3CCCC3N(C)C)nc3c2CCN(c2cccc(C)c2C)C3)CC1CC#N (stereo not shown) [Compound 28, 2-(1-acryloyl-4-(2-((2-(dimethylamino)cyclopentyl)methoxy)-7-(2,3-dimethylphenyl)-5,6,7,8-tetrahydropyrido[3,4-d]pyrimidin-4-yl)piperazin-2-yl)acetonitrile]
- IC50 (KRAS G12C): 24.1 nM
- IC50 [2]: 138 nM

SMILES: C=CC(=O)N1CCN(c2nc(OCC3(CN4CCOCC4)CC3)nc3c2CCN(c2cccc(Cl)c2C(F)(F)F)C3)CC1CC#N (stereo not shown) [Compound 40, 2-(1-acryloyl-4-(7-(3-chloro-2-(trifluoromethyl)phenyl)-2-((1-(morpholinomethyl)cyclopropyl)methoxy)-5,6,7,8-tetrahydropyrido[3,4-d]pyrimidin-4-yl)piperazin-2-yl)acetonitrile]
- IC50 (KRAS G12C): 23.8 nM
- IC50 [2]: 360 nM
